Measurements taken from PubChem BioAssay AID248 (DTP/NCI, 2004).
Several values for one entry are separate records, joined by “and”; a condition that tells them apart may be missing. Equal entries are not always repeated. Inconclusive results and toxic doses are left out. Rule as the data show it: active = T/C of 150% or more; inactive = T/C below 125%.

Test system: L1210 leukemia ip in BDF1 mice, survival T/C
Test: NCI In Vivo Anticancer Drug Screen. Data for tumor model L1210 Leukemia (intraperitoneal) in B6D2F1 (BDF1) mice
Settings: higher = longer survival
How it was run: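 Transplantable tumor model; survival measured in treated vs vehicle control mice. Value = treated/control.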

Measured: T/C

S=c1nc[nH]c2nc[nH]c12
inactive: endpoint: mean survival time, dose: 0.15 mg/kg/injection, schedule: Q01DX001 (ip), vehicle: other 102 % of control | endpoint: mean survival time, dose: 0.15 mg/kg/injection, schedule: Q01DX Z (ip), vehicle: other 98 % of control | endpoint: mean survival time, dose: 0.3 mg/kg/injection, schedule: Q01DX001 (ip), vehicle: other 101 % of control | endpoint: mean survival time, dose: 0.3 mg/kg/injection, schedule: Q01DX Z (ip), vehicle: other 101 % of control | endpoint: mean survival time, dose: 0.6 mg/kg/injection, schedule: Q01DX001 (ip), vehicle: other 93 % of control and 101 % of control | endpoint: mean survival time, dose: 0.6 mg/kg/injection, schedule: Q01DX Z (ip), vehicle: other 96 % of control | endpoint: mean survival time, dose: 0.63 mg/kg/injection, schedule: Q01DX015 (ip), vehicle: alkali diluted with saline 95 % of control | endpoint: mean survival time, dose: 1.1 mg/kg/injection, schedule: Q01DX001 (ip), vehicle: other 104 % of control | endpoint: mean survival time, dose: 1.25 mg/kg/injection, schedule: Q01DX015 (ip), vehicle: alkali diluted with saline 95 % of control | endpoint: mean survival time, dose: 1.3 mg/kg/injection, schedule: Q01DX001 (ip), vehicle: other 101 % of control | endpoint: mean survival time, dose: 1.3 mg/kg/injection, schedule: Q01DX Z (ip), vehicle: other 102 % of control | endpoint: mean survival time, dose: 1.9 mg/kg/injection, schedule: Q01DX009 (ip), vehicle: alkali diluted with saline 107 % of control | endpoint: mean survival time, dose: 2.0 mg/kg/injection, schedule: Q01DX001 (ip), vehicle: carboxymethylcellulose (CMC) 107 % of control | endpoint: mean survival time, dose: 2.2 mg/kg/injection, schedule: Q01DX001 (ip), vehicle: other 104 % of control | endpoint: mean survival time, dose: 2.5 mg/kg/injection, schedule: Q01DX015 (ip), vehicle: alkali diluted with saline 100 % of control | endpoint: mean survival time, dose: 2.5 mg/kg/injection, schedule: Q01DX Z (ip), vehicle: other 107 % of control | endpoint: mean survival time, dose: 3.8 mg/kg/injection, schedule: Q01DX009 (ip), vehicle: alkali diluted with saline 105 % of control | endpoint: mean survival time, dose: 3.8 mg/kg/injection, schedule: Q03DX Z (ip), vehicle: other 108 % of control | endpoint: mean survival time, dose: 4.0 mg/kg/injection, schedule: Q01DX001 (ip), vehicle: carboxymethylcellulose (CMC) 98 % of control | endpoint: mean survival time, dose: 4.4 mg/kg/injection, schedule: Q01DX001 (ip), vehicle: other 102 % of control | endpoint: mean survival time, dose: 5.0 mg/kg/injection, schedule: Q01DX015 (ip), vehicle: alkali diluted with saline 103 % of control | endpoint: mean survival time, dose: 5.0 mg/kg/injection, schedule: Q01DX Z (ip), vehicle: alkali diluted with saline 104 % of control and 110 % of control | endpoint: mean survival time, dose: 7.5 mg/kg/injection, schedule: Q01DX009 (ip), vehicle: alkali diluted with saline 101 % of control | endpoint: mean survival time, dose: 7.5 mg/kg/injection, schedule: Q01DX009 (ip), vehicle: saline 103 % of control | endpoint: mean survival time, dose: 7.5 mg/kg/injection, schedule: Q03DX Z (ip), vehicle: other 111 % of control | endpoint: mean survival time, dose: 8.0 mg/kg/injection, schedule: Q01DX001 (ip), vehicle: carboxymethylcellulose (CMC) 95 % of control | endpoint: mean survival time, dose: 8.0 mg/kg/injection, schedule: Q04DX002 (ip), vehicle: alkali diluted with saline 105 % of control and 106 % of control | endpoint: mean survival time, dose: 10.0 mg/kg/injection, schedule: Q01DX006 (iv), vehicle: other 103 % of control | endpoint: mean survival time, dose: 10.0 mg/kg/injection, schedule: Q01DX009 (oral), vehicle: saline with Tween-80 102 % of control and 107 % of control | endpoint: mean survival time, dose: 10.0 mg/kg/injection, schedule: Q01DX015 (ip), vehicle: alkali diluted with saline 101 % of control | endpoint: mean survival time, dose: 10.0 mg/kg/injection, schedule: Q01DX Z (ip), vehicle: alkali diluted with saline 110 % of control | endpoint: mean survival time, dose: 10.0 mg/kg/injection, schedule: Q01DX Z (sc), vehicle: other 111 % of control | endpoint: mean survival time, dose: 12.0 mg/kg/injection, schedule: Q04DX003 (ip), vehicle: saline 105 % of control | endpoint: mean survival time, dose: 12.5 mg/kg/injection, schedule: Q01DX009 (ip), vehicle: saline 112 % of control | endpoint: mean survival time, dose: 12.5 mg/kg/injection, schedule: Q01DX017 (ip), vehicle: other 104 % of control | endpoint: mean survival time, dose: 12.5 mg/kg/injection, schedule: Q01DX Z (ip), vehicle: other 105 % of control | endpoint: mean survival time, dose: 15.0 mg/kg/injection, schedule: Q01DX009 (ip), vehicle: saline 112 % of control | endpoint: mean survival time, dose: 16.0 mg/kg/injection, schedule: Q01DX001 (ip), vehicle: carboxymethylcellulose (CMC) 101 % of control | endpoint: mean survival time, dose: 16.0 mg/kg/injection, schedule: Q04DX002 (ip), vehicle: alkali diluted with saline 100 % of control and 102 % of control | endpoint: mean survival time, dose: 18.0 mg/kg/injection, schedule: Q01DX015 (ip), vehicle: alkali diluted with saline 104 % of control | endpoint: mean survival time, dose: 20.0 mg/kg/injection, schedule: Q01DX005 (ip), vehicle: alkali diluted with water 108 % of control and 111 % of control | endpoint: mean survival time, dose: 20.0 mg/kg/injection, schedule: Q01DX006 (iv), vehicle: other 108 % of control | endpoint: mean survival time, dose: 20.0 mg/kg/injection, schedule: Q01DX009 (oral), vehicle: saline with Tween-80 98 % of control and 105 % of control | endpoint: mean survival time, dose: 20.0 mg/kg/injection, schedule: Q01DX Z (ip), vehicle: alkali diluted with saline 110 % of control | endpoint: mean survival time, dose: 20.0 mg/kg/injection, schedule: Q02DX008 (ip), vehicle: alkali diluted with saline 105 % of control | endpoint: mean survival time, dose: 27.0 mg/kg/injection, schedule: Q01DX015 (ip), vehicle: alkali diluted with saline 106 % of control | endpoint: mean survival time, dose: 30.0 mg/kg/injection, schedule: Q04DX003 (ip), vehicle: saline 109 % of control | endpoint: mean survival time, dose: 32.0 mg/kg/injection, schedule: Q01DX001 (ip), vehicle: carboxymethylcellulose (CMC) 101 % of control | endpoint: mean survival time, dose: 32.0 mg/kg/injection, schedule: Q04DX002 (ip), vehicle: alkali diluted with saline 102 % of control and 103 % of control | endpoint: mean survival time, dose: 35.0 mg/kg/injection, schedule: Q01DX011 (ip), vehicle: alkali diluted with saline 108 % of control | endpoint: mean survival time, dose: 40.0 mg/kg/injection, schedule: Q01DX001 (ip), vehicle: alkali diluted with saline 104 % of control | endpoint: mean survival time, dose: 40.0 mg/kg/injection, schedule: Q01DX006 (iv), vehicle: other 111 % of control | endpoint: mean survival time, dose: 40.0 mg/kg/injection, schedule: Q#A X Z (ip), vehicle: other 94 % of control | endpoint: mean survival time, dose: 45.0 mg/kg/injection, schedule: Q06HX012 (ip), vehicle: alkali diluted with saline 96 % of control | endpoint: mean survival time, dose: 53.0 mg/kg/injection, schedule: Q01DX011 (ip), vehicle: alkali diluted with saline 109 % of control | endpoint: mean survival time, dose: 60.0 mg/kg/injection, schedule: Q01DX001 (ip), vehicle: alkali diluted with saline 110 % of control and 111 % of control | endpoint: mean survival time, dose: 60.0 mg/kg/injection, schedule: Q## X015 (ip), vehicle: other 107 % of control | endpoint: mean survival time, dose: 64.0 mg/kg/injection, schedule: Q01DX001 (ip), vehicle: carboxymethylcellulose (CMC) 98 % of control | endpoint: mean survival time, dose: 80.0 mg/kg/injection, schedule: Q01DX Z (ip), vehicle: carboxymethylcellulose (CMC) 105 % of control | endpoint: mean survival time, dose: 90.0 mg/kg/injection, schedule: Q01DX009 (ip), vehicle: carboxymethylcellulose (CMC) 107 % of control | endpoint: mean survival time, dose: 109.0 mg/kg/injection, schedule: Q01DX001 (ip), vehicle: alkali diluted with saline 110 % of control and 112 % of control | endpoint: mean survival time, dose: 109.0 mg/kg/injection, schedule: Q## X001 (ip), vehicle: alkali diluted with saline 111 % of control | endpoint: mean survival time, dose: 112.0 mg/kg/injection, schedule: Q02DX010 (ip), vehicle: carboxymethylcellulose (CMC) 110 % of control | endpoint: mean survival time, dose: 120.0 mg/kg/injection, schedule: Q01DX009 (ip), vehicle: carboxymethylcellulose (CMC) 103 % of control | endpoint: mean survival time, dose: 128.0 mg/kg/injection, schedule: Q01DX001 (ip), vehicle: carboxymethylcellulose (CMC) 95 % of control | endpoint: mean survival time, dose: 129.2 mg/kg/injection, schedule: Q02DX010 (ip), vehicle: carboxymethylcellulose (CMC) 110 % of control | endpoint: mean survival time, dose: 146.0 mg/kg/injection, schedule: Q01DX001 (ip), vehicle: alkali diluted with saline 108 % of control and 112 % of control | endpoint: mean survival time, dose: 151.0 mg/kg/injection, schedule: Q01DX015 (ip), vehicle: other 105 % of control | endpoint: mean survival time, dose: 160.0 mg/kg/injection, schedule: Q01DX009 (ip), vehicle: saline with Tween-80 104 % of control | endpoint: mean survival time, dose: 160.0 mg/kg/injection, schedule: Q01DX Z (im), vehicle: other 102 % of control | endpoint: mean survival time, dose: 200.0 mg/kg/injection, schedule: Q01DX009 (ip), vehicle: Klucel (hydroxypropylcellulose) (HPC) 103 % of control | endpoint: mean survival time, dose: 200.0 mg/kg/injection, schedule: Q01DX009 (ip), vehicle: alkali diluted with saline 108 % of control | endpoint: mean survival time, dose: 200.0 mg/kg/injection, schedule: Q## X009 (ip), vehicle: alkali diluted with saline 108 % of control | endpoint: mean survival time, dose: 202.0 mg/kg/injection, schedule: Q01DX009 (ip), vehicle: alkali diluted with saline 95 % of control | endpoint: mean survival time, dose: 240.0 mg/kg/injection, schedule: Q01DX009 (ip), vehicle: alkali diluted with saline 96 % of control | endpoint: mean survival time, dose: 240.0 mg/kg/injection, schedule: Q03DX Z (ip), vehicle: other 101 % of control | endpoint: mean survival time, dose: 256.0 mg/kg/injection, schedule: Q01DX001 (ip), vehicle: carboxymethylcellulose (CMC) 98 % of control | endpoint: mean survival time, dose: 303.0 mg/kg/injection, schedule: Q04DX003 (ip), vehicle: saline with Tween-80 101 % of control | endpoint: mean survival time, dose: 400.0 mg/kg/injection, schedule: Q04DX003 (ip), vehicle: saline with Tween-80 101 % of control | endpoint: mean survival time, dose: 510.0 mg/kg/injection, schedule: Q04DX002 (ip), vehicle: alkali diluted with saline 96 % of control and 104 % of control | endpoint: mean survival time, dose: 1020.0 mg/kg/injection, schedule: Q07DX Z (ip), vehicle: other 93 % of control | endpoint: mean survival time, dose: 2675.0 micrograms/kg/injection, schedule: Q01DX Z (ip), vehicle: carboxymethylcellulose (CMC) 108 % of control | endpoint: median survival time, dose: 6.25 mg/kg/injection, schedule: Q01DX009 (ip), vehicle: other 105 % of control | endpoint: median survival time, dose: 25.0 mg/kg/injection, schedule: Q01DX009 (ip), vehicle: other 111 % of control | endpoint: median survival time, dose: 100.0 mg/kg/injection, schedule: Q01DX009 (ip), vehicle: other 111 % of control | endpoint: median survival time, dose: 160.0 mg/kg/injection, schedule: Q01DX009 (ip), vehicle: saline 100 % of control
